Data: ChEMBL document CHEMBL4177563, “The medicinal chemistry of Chikungunya virus” (Bioorg Med Chem, 2017)
Values after ≈ are worked out from the molar mass of the structure shown.

Experiments:
Aedes aegypti [1] = experiment: Larvicidal activity against Aedes aegypti Paea assessed as mortality at 35 ug/ml after 24 hrs relative to control; format: functional
Aedes aegypti [2] = experiment: Larvicidal activity against Aedes aegypti Paea assessed as mortality at 28 ug/ml after 24 hrs relative to control; format: functional
Aedes aegypti [3] = experiment: Larvicidal activity against Aedes aegypti Paea assessed as mortality at 7 ug/ml after 24 hrs relative to control; format: functional
Aedes aegypti [4] = experiment: Larvicidal activity against Aedes aegypti Paea assessed as mortality at 21 ug/ml after 24 hrs relative to control; format: functional
Aedes aegypti [5] = experiment: Induction of oviposition deterrent activity in Aedes aegypti assessed as effective repellency at 15 ug/ml after 24 hrs by stereomicroscopic analysis relative to control; format: functional
Aedes aegypti [6] = experiment: Larvicidal activity against Aedes aegypti Paea assessed as mortality at 14 ug/ml after 24 hrs relative to control; format: functional
Aedes aegypti [7] = experiment: Larvicidal activity against Aedes aegypti Paea assessed as mortality after 24 hrs; format: functional, organism-based
Aedes aegypti [8] = experiment: Induction of oviposition deterrent activity in Aedes aegypti assessed as effective repellency at 60 ug/ml after 24 hrs by stereomicroscopic analysis relative to control; format: functional
Aedes aegypti [9] = experiment: Induction of oviposition deterrent activity in Aedes aegypti assessed as effective repellency at 75 ug/ml after 24 hrs by stereomicroscopic analysis relative to control; format: functional
Aedes aegypti [10] = experiment: Induction of oviposition deterrent activity in Aedes aegypti assessed as effective repellency at 30 ug/ml after 24 hrs by stereomicroscopic analysis relative to control; format: functional
Aedes aegypti [11] = experiment: Induction of oviposition deterrent activity in Aedes aegypti assessed as effective repellency at 45 ug/ml after 24 hrs by stereomicroscopic analysis relative to control; format: functional
Aedes aegypti [12] = experiment: Larvicidal activity against Aedes aegypti Paea assessed as mortality at 15 ug/ml after 24 hrs relative to control; format: functional
Aedes aegypti [13] = experiment: Larvicidal activity against Aedes aegypti Paea assessed as mortality at 5 ug/ml after 24 hrs relative to control; format: functional
Aedes aegypti [14] = experiment: Larvicidal activity against Aedes aegypti Paea assessed as mortality at 10 ug/ml after 24 hrs relative to control; format: functional
Aedes aegypti [15] = experiment: Larvicidal activity against Aedes aegypti Paea assessed as mortality at 25 ug/ml after 24 hrs relative to control; format: functional
Aedes aegypti [16] = experiment: Induction of oviposition deterrent activity in Aedes aegypti assessed as effective repellency at 20 ug/ml after 24 hrs by stereomicroscopic analysis relative to control; format: functional
Aedes aegypti [17] = experiment: Induction of oviposition deterrent activity in Aedes aegypti assessed as effective repellency at 50 ug/ml after 24 hrs by stereomicroscopic analysis relative to control; format: functional
Aedes aegypti [18] = experiment: Induction of oviposition deterrent activity in Aedes aegypti assessed as effective repellency at 40 ug/ml after 24 hrs by stereomicroscopic analysis relative to control; format: functional
Aedes aegypti [19] = experiment: Larvicidal activity against Aedes aegypti Paea assessed as mortality at 20 ug/ml after 24 hrs relative to control; format: functional
Aedes aegypti [20] = experiment: Induction of oviposition deterrent activity in Aedes aegypti assessed as effective repellency at 10 ug/ml after 24 hrs by stereomicroscopic analysis relative to control; format: functional
Chikungunya virus [21] = experiment: Antiviral activity against Chikungunya virus infected in African green monkey Vero cells; format: functional, organism-based
[22] = Cytotoxicity against African green monkey Vero cells assessed as reduction in cell viability; format: cell-based; conditions: chlorocebus sabaeus
Chikungunya virus [23] = experiment: Antiviral activity against Chikungunya virus infected in HEK293T cells assessed as reduction in infectious virus particle production by luciferase reporter gene assay; format: functional, organism-based; conditions: HEK-293T
Chikungunya virus [24] = experiment: Antiviral activity against Chikungunya virus S-27 assessed as viral titer interferon loading; format: functional
Chikungunya virus [25] = experiment: Antiviral activity against Chikungunya virus SGP011 infected in African green monkey BGM cells after 24 hrs by luciferase reporter gene assay; format: functional, organism-based
Chikungunya virus [26] = experiment: Antiviral activity against Chikungunya virus SGP011 infected in African green monkey BGM cells assessed as reduction in viral infectious progeny after 48 hrs by titration assay; format: functional, organism-based
Chikungunya virus [27] = experiment: Antiviral activity against Chikungunya virus CNR20235 infected in buffalo green monkey BGM cells after 24 hrs by luciferase reporter gene assay; format: functional, organism-based
Chikungunya virus [28] = experiment: Antiviral activity against Chikungunya virus 899 assessed as inhibition of virus-induced cytopathogenic effect measured on day 5 post infection by MTS/PMS based microscopic analysis; format: functional, organism-based; conditions: Chikungunya virus, 899, 120 h
Chikungunya virus [29] = experiment: Antiviral activity against Chikungunya virus 899 infected in African green monkey BGM cells assessed as reduction in viral infectious progeny after 48 hrs by titration assay; format: functional, organism-based; conditions: Chikungunya virus, 899, BGM
Chikungunya virus [30] = experiment: Antiviral activity against Chikungunya virus SGP011 by qRT-PCR analysis; format: functional, organism-based
Chikungunya virus [31] = experiment: Antiviral activity against Chikungunya virus LR2006 OPY1 infected in African green monkey BGM cells after 24 hrs by luciferase reporter gene assay; format: functional, organism-based
Chikungunya virus [32] = experiment: Antiviral activity against Chikungunya virus 899 by qRT-PCR analysis; format: functional, organism-based
[33] = Selectivity index, ratio of CC50 for African green monkey Vero cells to IC50 for Chikungunya virus LR2006 OPY1; format: toxicity; conditions: read-out: Ratio CC50/IC50
Chikungunya virus [34] = experiment: Antiviral activity against Chikungunya virus LR2006 OPY1 infected in human MRC5 cells after 60 mins by indirect immunofluorescence analysis; format: functional, organism-based; conditions: LR2006 OPY1, MRC5, 1 h
Chikungunya virus [35] = experiment: Antiviral activity against Chikungunya virus LR2006 OPY1 infected in human MRC5 cells after 30 mins by indirect immunofluorescence analysis; format: functional, organism-based; conditions: LR2006 OPY1, MRC5, 0.5 h
[36] = Selectivity index, ratio of CC50 for human MRC5 cells to IC50 for Chikungunya virus LR2006 OPY1; format: toxicity; conditions: read-out: Ratio CC50/IC50
Chikungunya virus [37] = experiment: Antiviral activity against Chikungunya virus LR2006 OPY1 infected in human MRC5 cells after 48 hrs by indirect immunofluorescence analysis; format: functional, organism-based; conditions: LR2006 OPY1, MRC5, 48 h
[38] = Cytotoxicity against human MRC5 cells assessed as reduction in cell viability after 48 hrs by neutral red staining-based microscopic analysis
[39] = Cytotoxicity against African green monkey Vero cells assessed as reduction in cell viability after 18 hrs by neutral red staining-based microscopic analysis; conditions: chlorocebus sabaeus

`CC(C)=CCCC(C)[C@@]1(O)CC=C(C)CC1` (stereo partly drawn) showed an Activity (Aedes aegypti [1]) of 98.1%, an Activity (Aedes aegypti [2]) of 84.7% and an Activity (Aedes aegypti [3]) of 24.8%. For the same molecule, the Activity (Aedes aegypti [4]) was 63.2%, the Activity (Aedes aegypti [5]) was 72.3% and the Activity (Aedes aegypti [6]) was 42.6%. It also gave an IC50 (Aedes aegypti [7]) of 15.8 µg/mL (≈ 71.2 µM), an IC90 (Aedes aegypti [7]) of 30.3 µg/mL (≈ 136 µM) and an Activity (Aedes aegypti [8]) of 85.45%. For the same molecule, the Activity (Aedes aegypti [9]) was 88.99%, the Activity (Aedes aegypti [10]) was 77.03% and the Activity (Aedes aegypti [11]) was 81.13%.
In the case of `CC(C)=CCCC(C)c1ccc(C)cc1` (stereo not drawn), the Activity (Aedes aegypti [12]) is reported as 62.7%, the Activity (Aedes aegypti [13]) is reported as 24.5% and the Activity (Aedes aegypti [14]) is reported as 45.3%. For the same molecule, the Activity (Aedes aegypti [15]) was 97.1%, the Activity (Aedes aegypti [16]) was 75.62% and the Activity (Aedes aegypti [17]) was 89.99%. It also gave an IC50 (Aedes aegypti [7]) of 11.2 µg/mL (≈ 55.5 µM), an IC90 (Aedes aegypti [7]) of 22 µg/mL (≈ 109 µM) and an Activity (Aedes aegypti [18]) of 86%. It also gave an Activity (Aedes aegypti [19]) of 84.2%, an Activity (Aedes aegypti [10]) of 80.87% and an Activity (Aedes aegypti [20]) of 70.28%.
In the case of `CC/C(C)=C/C(=O)O[C@@H]1[C@H](C)C[C@H]2O[C@]1(O)[C@@H](O)[C@H]1CC[C@H](O1)C(C)(C)/C=C/[C@H](C)C2=O`, the EC50 (Chikungunya virus [21]) is reported as under 0.8 µg/mL and the CC50 [22] is reported as 60.9 µg/mL (≈ 135 µM).
Molecule `O=C(O[C@@H]1Cc2c(O)cc(O)cc2O[C@@H]1c1cc(O)c(O)c(O)c1)c1cc(O)c(O)c(O)c1` [EPIGALOCATECHIN GALLATE] has an EC50 (Chikungunya virus [23]) of 6.54 µg/mL (≈ 14.3 µM).
For `Sc1ncnc2nc[nH]c12` [MERCAPTOPURINE ANHYDROUS], the Activity (Chikungunya virus [24]) was 47 - 67 U/ml.
For `CC(=O)O[C@@]12C[C@@H](C)[C@@]3(O)[C@@H](C=C(CO)C[C@]4(O)C(=O)C(C)=C[C@@H]34)[C@@H]1C2(C)C` [PROSTRATIN], the EC50 (Chikungunya virus [25]) was 0.2 µM, the EC50 (Chikungunya virus [26]) was 0.4 µM and the EC50 (Chikungunya virus [27]) was 0.5 µM. For the same molecule, the EC50 (Chikungunya virus [28]) was 8 µM, the EC50 (Chikungunya virus [29]) was 7.1 µM and the EC50 (Chikungunya virus [30]) was 0.3 µM. The EC50 (Chikungunya virus [31]) was 0.2 µM and the EC50 (Chikungunya virus [32]) was 7.6 µM.
Molecule `CCOC(=O)c1c(CSc2ccccc2)n(C)c2cc(Br)c(O)c(CN(C)C)c12` [UMIFENOVIR] has a selectivity ratio [33] of 28, an IC50 (Chikungunya virus [34]) of 31.7 µM and an IC50 (Chikungunya virus [35]) of 23.1 µM. For the same molecule, the selectivity ratio [36] was 36, the IC50 (Chikungunya virus [37]) was 12.2 µM and the CC50 at 48 h [38] was 376 µM. For the same molecule, the CC50 at 18 h [39] was 680 µM.
